Measured values: ChEMBL document CHEMBL1201862, “PubChem BioAssay data set” (2004)
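Five concentrations, 48 hours, 96-well plates. GI50: concentration for 50% inhibition of growth.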 Calls of active or inactive are those of the source. Rule as the data show it: active = GI50 up to about 1.1 µM and inactive = higher.

Key:
Assay in all cases: NCI-60 cell line screen, 48 h
SK-MEL-5 = tested on: SK-MEL-5
LOX IMVI = tested on: LOX IMVI
CCRF-CEM = tested on: CCRF-CEM
NCI-H460 = tested on: NCI-H460
RPMI-8226 = tested on: RPMI-8226
HOP-92 = tested on: HOP-92
HOP-18 = tested on: HOP-18
UACC-257 = tested on: UACC-257

Measured: GI50

Cc1cc(O)nc(NN2C(Cl)C(=O)C2c2ccc([N+](=O)[O-])cc2)n1 (stereo not drawn)
inactive: SK-MEL-5 13.5 µM | LOX IMVI 5.96 µM | CCRF-CEM 2.15 µM | NCI-H460 4.04 µM | RPMI-8226 7.35 µM | HOP-92 13.7 µM | HOP-18 11.3 µM | UACC-257 16 µM
